These results are taken from patent US20240226079A1, “TOPICAL ANAESTHETIC COMPOSITION HAVING IMPROVED VASOCONSTRICTOR STABILITY” (Animal Ethics Pty Ltd, priority 2021, published 2024).

The nature of the data set: Forced degradation studies of the drug substances. From the text: Table 4 summarises information on the relative chemical stability of the drug substances, obtained in forced degradation studies.

Read-outs that look alike come from different tables or passages of the source.

Take `CNCC(O)c1ccc(O)c(O)c1` (stereo not shown) [Adrenaline]: the “% Degradation” value was 51.6%.
The same measure, in the same setting: for `CCCCN1CCCCC1C(=O)Nc1c(C)cccc1C` (stereo not shown) [Bupivacaine] the value was 11.2%.
Take `CCN(CC)CC(=O)Nc1c(C)cccc1C` [Lignocaine]: the “% Degradation” value (Acid, 8 Weeks) is −0.3%; the “% Degradation” value (Base, 8 Weeks) was 1.1%; the “% Degradation” value (Heat, 8 Weeks) is 1.1%; the “% Degradation” value (Light, 51 × 10^6 lux hrs) stood at 9.9%; the “% Degradation” value (Oxidation 1, 8 Weeks) is on record as −0.2%; the “% Degradation” value (Oxidation 2, 8 Weeks) came to 3.3%. For the same molecule, where the note is “Reduction, 8 Weeks”, the “% Degradation” value is −0.3%.
Take Cetrimide: the “% Degradation” value (Acid, 8 Weeks) amounted to 0.4%; the “% Degradation” value (Base, 8 Weeks) is reported as 0.9%; the “% Degradation” value (Heat, 8 Weeks) was found to be 0.5%; the “% Degradation” value (Light, 51 × 10^6 lux hrs) was determined as 8.9%; the “% Degradation” value (Oxidation 1, 8 Weeks) was −0.2%; the “% Degradation” value (Oxidation 2, 8 Weeks) was 1.0%. Besides, the “% Degradation” value (Reduction, 8 Weeks) is 8.4%.
